Test results: PubChem BioAssay (NCI)
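Exposure lasted 48 hours, with cells grown in 96-well plates and compounds tested at five concentrations. At the GI50, growth is halved. TGI marks complete inhibition of growth.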 Where a SMILES comes first, the peptide text is derived from it.

What was measured:
Experiment in all cases: growth of human tumour cells (NCI), 48 h; in the data active = GI50 below about 0.43 µM; inactive = the rest
[1] = test system: MDA-N
[2] = test system: SW-620 colon
[3] = test system: SR leukemia
[4] = test system: MOLT-4 leukemia
[5] = test system: SNB-19 CNS
[6] = test system: DU-145 prostate
[7] = test system: SF-295 CNS
[8] = test system: SF-539 CNS
[9] = test system: M14 melanoma
[10] = test system: HCT-116 colon
[11] = test system: SK-OV-3 ovarian
[12] = test system: MDA-MB-435
[13] = test system: HOP-62 NSCLC
[14] = test system: HT29 colon
[15] = test system: CCRF-CEM leukemia
[16] = test system: MALME-3M melanoma
[17] = test system: SNB-75 CNS
[18] = test system: HCT-15 colon
[19] = test system: HS 578T breast
[20] = test system: IGROV1 ovarian
[21] = test system: RPMI-8226 leukemia
[22] = test system: HOP-92 NSCLC
[23] = test system: SK-MEL-2 melanoma
[24] = test system: NCI-H226 lung
[25] = test system: BT-549 breast
[26] = test system: PC-3 prostate
[27] = test system: MCF7 breast
[28] = test system: K-562 leukemia
[29] = test system: SK-MEL-28 melanoma
[30] = test system: SF-268 CNS
[31] = test system: NCI-H23 lung
[32] = test system: EKVX NSCLC
[33] = test system: OVCAR-5 ovarian
[34] = test system: A498 renal
[35] = test system: U251 CNS
[36] = test system: RXF 393 renal
[37] = test system: OVCAR-3 ovarian
[38] = test system: TK-10 renal
[39] = test system: COLO 205 colon
[40] = test system: UACC-257 melanoma
[41] = test system: T-47D breast
[42] = test system: SN12C renal
[43] = test system: OVCAR-4 ovarian
[44] = test system: 786-0 renal
[45] = test system: A549 NSCLC
[46] = test system: NCI-H522 lung
[47] = test system: OVCAR-8 ovarian
[48] = test system: UO-31 renal
[49] = test system: MDA-MB-231 breast
[50] = test system: ACHN renal
[51] = test system: NCI-H460 lung
[52] = test system: HCC-2998 colon
[53] = test system: LOX IMVI melanoma
[54] = test system: UACC-62 melanoma
[55] = test system: CAKI-1 renal
[56] = test system: KM12 colon
[57] = test system: HL-60(TB) leukemia
[58] = test system: NCI/ADR-RES ovarian
[59] = test system: SK-MEL-5 melanoma

[NH-]c1ncnc2c1N=C[N+]2=CC=CCO
> 100000 nM: TGI [1]

CCC(C)C1NC(=O)C(CCCCN)NC(=O)C(CCCCN)NC(=O)C(CC(C)C)NC(=O)C(CCCCN)NC(=O)C(C(C)CC)NC(=O)C(C(C)C)NC(=O)C(C(C)CC)NC(=O)C(CCCCN)NC(=O)C(CCCCN)NC(=O)C(C)NC(=O)C(CCCCN)NC(=O)C(CC(C)C)NC1=O (configuration not stated) (cyclo(AKKIVIKLKKILK); configuration not given here)
3740 nM: TGI [21]
4350 nM: TGI [17]
9640 nM: TGI [45]
3240 nM: TGI [22]
3590 nM: TGI [2]
6460 nM: TGI [42]
5660 nM: TGI [19]
4280 nM: TGI [51]
8180 nM: TGI [33]
3010 nM: TGI [36]
4880 nM: TGI [23]
3270 nM: TGI [18]
6400 nM: TGI [47]
3640 nM: TGI [44]
5610 nM: TGI [58]
3800 nM: TGI [12]
3300 nM: TGI [16]
11300 nM: TGI [30]
6840 nM: TGI [50]
4610 nM: TGI [29]
2520 nM: TGI [7]
3760 nM: TGI [55]
5980 nM: TGI [27]
3370 nM: TGI [24]
3650 nM: TGI [39]
10700 nM: TGI [6]
8520 nM: TGI [26] | TGI [52]
3460 nM: TGI [9]
2190 nM: TGI [59]
2740 nM: TGI [48]
6930 nM: TGI [57]
10800 nM: TGI [14]
3200 nM: TGI [53]
6000 nM: TGI [32]
inactive: GI50 [2] 1750 nM | GI50 [3] 1860 nM | GI50 [4] 1700 nM | GI50 [5] 2930 nM | GI50 [6] 2990 nM | GI50 [7] 1140 nM | GI50 [8] 2050 nM | GI50 [9] 1600 nM | GI50 [10] 1460 nM | GI50 [11] 2090 nM | GI50 [12] 1770 nM | GI50 [13] 1760 nM | GI50 [14] 2930 nM | GI50 [15] 2150 nM | GI50 [16] 1450 nM | GI50 [17] 1720 nM | GI50 [18] 1600 nM | GI50 [19] 2000 nM | GI50 [20] 1970 nM | GI50 [21] 1110 nM | GI50 [22] 1270 nM | GI50 [23] 2060 nM | GI50 [24] 1210 nM | GI50 [25] 1790 nM | GI50 [26] 779 nM | GI50 [27] 1870 nM | GI50 [28] 1310 nM | GI50 [29] 1970 nM | GI50 [30] 2590 nM | GI50 [31] 704 nM | GI50 [32] 1330 nM | GI50 [33] 2330 nM | GI50 [34] 1660 nM | GI50 [35] 1590 nM | GI50 [36] 1490 nM | GI50 [37] 1620 nM | GI50 [38] 1870 nM | GI50 [39] 1740 nM | GI50 [40] 2420 nM | GI50 [41] 1690 nM | GI50 [42] 1940 nM | GI50 [43] 1280 nM | GI50 [44] 1800 nM | GI50 [45] 2260 nM | GI50 [46] 1740 nM | GI50 [47] 1730 nM | GI50 [48] 1380 nM | GI50 [49] 1720 nM | GI50 [50] 2360 nM | GI50 [51] 1850 nM | GI50 [52] 2650 nM | GI50 [53] 1730 nM | GI50 [54] 1270 nM | GI50 [55] 1560 nM | GI50 [56] 2550 nM | GI50 [57] 2420 nM | GI50 [58] 1070 nM | GI50 [59] 1010 nM
4630 nM: TGI [38]
3070 nM: TGI [10]
5020 nM: TGI [3]
4380 nM: TGI [8]
3970 nM: TGI [13]
3250 nM: TGI [35]
4250 nM: TGI [49]
14000 nM: TGI [5]
5290 nM: TGI [4]
6700 nM: TGI [41]
6180 nM: TGI [20]
3840 nM: TGI [34]
13400 nM: TGI [43]
4700 nM: TGI [46]
2940 nM: TGI [54]
5880 nM: TGI [11]
3630 nM: TGI [37]
7570 nM: TGI [40]
9300 nM: TGI [15]
4450 nM: TGI [31]
8090 nM: TGI [56]
5470 nM: TGI [28]
3960 nM: TGI [25]

O=C(Nc1ccccc1C(=O)N/N=C(\c1ccccc1)c1ccccn1)c1ccccc1
> 22000 nM: TGI [57]
> 67000 nM: TGI [7]
active: GI50 [10] 405 nM | GI50 [13] 396 nM | GI50 [15] 351 nM | GI50 [18] 112 nM | GI50 [32] 339 nM | GI50 [37] 346 nM | GI50 [43] 330 nM | GI50 [44] 399 nM | GI50 [50] 418 nM | GI50 [51] 402 nM | GI50 [55] 397 nM | GI50 [58] 276 nM
4630 nM: TGI [9]
47800 nM: TGI [22]
> 100000 nM: TGI [2] | TGI [3] | TGI [4] | TGI [5] | TGI [6] | TGI [8] | TGI [10] | TGI [11] | TGI [12] | TGI [13] | TGI [14] | TGI [15] | TGI [16] | TGI [17] | TGI [18] | TGI [19] | TGI [20] | TGI [21] | TGI [23] | TGI [24] | TGI [25] | TGI [26] | TGI [27] | TGI [28] | TGI [29] | TGI [30] | TGI [31] | TGI [32] | TGI [33] | TGI [34] | TGI [35] | TGI [37] | TGI [38] | TGI [39] | TGI [40] | TGI [41] | TGI [42] | TGI [43] | TGI [44] | TGI [45] | TGI [46] | TGI [47] | TGI [49] | TGI [50] | TGI [51] | TGI [52] | TGI [53] | TGI [55] | TGI [56] | TGI [58]
> 25500 nM: TGI [48]
inactive: GI50 [2] 723 nM | GI50 [3] 507 nM | GI50 [4] 460 nM | GI50 [5] 912 nM | GI50 [6] 999 nM | GI50 [7] 427 nM | GI50 [8] 621 nM | GI50 [9] 457 nM | GI50 [11] 504 nM | GI50 [12] 1390 nM | GI50 [14] 797 nM | GI50 [16] 1750 nM | GI50 [17] 1070 nM | GI50 [19] > 100000 nM | GI50 [20] 502 nM | GI50 [21] 823 nM | GI50 [22] 552 nM | GI50 [23] 4850 nM | GI50 [24] 828 nM | GI50 [25] 2180 nM | GI50 [26] 711 nM | GI50 [27] 556 nM | GI50 [28] 1450 nM | GI50 [29] 1230 nM | GI50 [30] 609 nM | GI50 [31] 1870 nM | GI50 [33] 933 nM | GI50 [34] 2950 nM | GI50 [35] 657 nM | GI50 [36] 1930 nM | GI50 [38] 584 nM | GI50 [39] 427 nM | GI50 [40] 2580 nM | GI50 [41] 666 nM | GI50 [42] 623 nM | GI50 [45] 987 nM | GI50 [46] 1270 nM | GI50 [47] 583 nM | GI50 [48] 428 nM | GI50 [49] 478 nM | GI50 [52] 537 nM | GI50 [53] 505 nM | GI50 [54] 496 nM | GI50 [56] 581 nM | GI50 [57] 606 nM | GI50 [59] 560 nM
> 82400 nM: TGI [36]
2460 nM: TGI [59]
